Data as given in patent publication US11434242B2, “Dopamine-b-hydroxylase inhibitors” (BIAL-PORTELA & Cª, S.A., priority 2017, dated 2022).

Target: T1, Dopamine beta hydroxylase (Homo sapiens, UniProt P09172)
T1 construct: 125 μl of plasma; tissue Instituto Português do Sangue Transplantação; host or cells: human plasma from healthy donors
T1 sequence (P09172 40-617 limits assumed): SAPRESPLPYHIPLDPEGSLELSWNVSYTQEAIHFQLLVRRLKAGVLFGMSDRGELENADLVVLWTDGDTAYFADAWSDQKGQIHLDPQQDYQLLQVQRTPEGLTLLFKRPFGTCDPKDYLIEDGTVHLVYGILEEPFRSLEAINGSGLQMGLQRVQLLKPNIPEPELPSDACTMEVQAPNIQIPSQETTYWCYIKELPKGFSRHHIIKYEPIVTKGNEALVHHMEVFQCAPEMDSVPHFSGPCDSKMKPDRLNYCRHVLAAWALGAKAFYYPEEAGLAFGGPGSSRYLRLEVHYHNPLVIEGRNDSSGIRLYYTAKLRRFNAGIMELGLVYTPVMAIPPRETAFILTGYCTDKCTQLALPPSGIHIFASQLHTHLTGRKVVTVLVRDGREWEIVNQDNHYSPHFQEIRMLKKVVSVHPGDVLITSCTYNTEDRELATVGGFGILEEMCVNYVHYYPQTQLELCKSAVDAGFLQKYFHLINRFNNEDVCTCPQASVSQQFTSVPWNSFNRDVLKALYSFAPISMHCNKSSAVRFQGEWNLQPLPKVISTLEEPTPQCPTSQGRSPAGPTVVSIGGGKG
Experiment: Dopamine beta hydroxylase activity in human plasma
Format: biochemical
Details: for Plasma (0.01 μM), activity in % of control: inhibitor 0.01 μM; for Plasma (0.1 μM), activity in % of control: inhibitor 0.1 μM
Method in brief: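 Healthy-donor human plasma pre-incubated 10 min at 37° C with compound at final 10, 100 or 1000 nM in pH 5.0 acetate buffer with ascorbate, fumarate, pargyline, N-ethylmaleimide, catalase and copper sulfate. Tyramine substrate then added for 45 min; octopamine formed was isolated by SCX cartridge, periodate-converted and read at 330 nm; activity given as % control.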

Row | SMILES | Plasma (0.01 μM), activity in % of control | Plasma (0.1 μM), activity in % of control
1 | COC[C@@H]1CCCN1C(=O)Cc1c2n(c(=S)n1C)C[C@@H](c1c(F)c(F)cc(F)c1F)C2 [Example 283, 1-((S)-2-(methoxymethyl)pyrrolidin-1-yl)-2-((R)-2-methyl-6-(2,3,5,6-tetrafluorophenyl)-3-thioxo-2,5,6,7-tetrahydro-3H-pyrrolo[1,2-c]imidazol-1-yl)ethan-1-one] | 96.0 % of control | 72.9 % of control
2 | CC(C)NC(=O)Cc1c2n(c(=S)n1C)C[C@@]1(c3cc(Br)ccc3F)C[C@@H]21 [Example 284, 2-((5aS,6aR)-5a-(5-bromo-2-fluorophenyl)-2-methyl-3-thioxo-2,3,5,5a,6,6a-hexahydrocyclopropa[3,4]pyrrolo[1,2-c]imidazol-1-yl)-N-isopropylacetamide] | 84.8 % of control | 41.9 % of control
3 | Cn1c(CC(=O)Nc2nncs2)c2n(c1=S)C[C@H](c1c(F)ccc(Cl)c1F)C2 [Example 285, (S)-2-(6-(3-chloro-2,6-difluorophenyl)-2-methyl-3-thioxo-2,5,6,7-tetrahydro-3H-pyrrolo[1,2-c]imidazol-1-yl)-N-(1,3,4-thiadiazol-2-yl)acetamide] | 55.8 % of control | 22.2 % of control
4 | Cn1c(CC(=O)Nc2ncco2)c2n(c1=S)C[C@@H](c1c(F)ccc(F)c1F)C2 [Example 286, (R)-2-(2-methyl-3-thioxo-6-(2,3,6-trifluorophenyl)-2,5,6,7-tetrahydro-3H-pyrrolo[1,2-c]imidazol-1-yl)-N-(oxazol-2-yl)acetamide] | 73.8 % of control | 3.4 % of control
5 | Cl.Cn1c(CC(=O)Nc2ccncc2)c2n(c1=S)C[C@H](c1c(F)ccc(Cl)c1F)C2 [Example 287, (S)-2-(6-(3-chloro-2,6-difluorophenyl)-2-methyl-3-thioxo-2,5,6,7-tetrahydro-3H-pyrrolo[1,2-c]imidazol-1-yl)-N-(pyridin-4-yl)acetamide Hydrochloride] | 66.8 % of control | 15.5 % of control
6 | Cn1c(CCC(=O)N[C@@H]2CCCOC2)c2n(c1=S)C[C@@H](c1c(F)ccc(F)c1F)C2 [Example 288, 3-((R)-2-methyl-3-thioxo-6-(2,3,6-trifluorophenyl)-2,5,6,7-tetrahydro-3H-pyrrolo[1,2-c]imidazol-1-yl)-N—((R)-tetrahydro-2H-pyran-3-yl)propanamide] | 82.0 % of control | 81.1 % of control
7 | Cn1c(CC(=O)N[C@H]2CCOC2)c2n(c1=S)C[C@@H](c1c(F)ccc(F)c1F)C2 [Example 289, 2-((R)-2-methyl-3-thioxo-6-(2,3,6-trifluorophenyl)-2,5,6,7-tetrahydro-3H-pyrrolo[1,2-c]imidazol-1-yl)-N—((S)-tetrahydrofuran-3-yl)acetamide] | 87.1 % of control | 58.3 % of control
8 | Cn1c(CC(=O)NCc2cccnc2)c2n(c1=S)C[C@H](c1c(F)ccc(Cl)c1F)C2 [Example 290, (S)-2-(6-(3-chloro-2,6-difluorophenyl)-2-methyl-3-thioxo-2,5,6,7-tetrahydro-3H-pyrrolo[1,2-c]imidazol-1-yl)-N-(pyridin-3-ylmethyl)acetamide] | 37.6 % of control | 3.8 % of control
9 | Cn1c(CC(=O)NCc2ccc3c(c2)OCO3)c2n(c1=S)C[C@H](c1c(F)ccc(Cl)c1F)C2 [Example 291, (S)—N-(benzo[d][1,3]dioxol-5-ylmethyl)-2-(6-(3-chloro-2,6-difluorophenyl)-2-methyl-3-thioxo-2,5,6,7-tetrahydro-3H-pyrrolo[1,2-c]imidazol-1-yl)acetamide] | 30.2 % of control | 1.7 % of control
10 | Cn1c(CC(=O)N2CC[C@@H](F)C2)c2n(c1=S)C[C@@H](c1c(F)ccc(F)c1F)C2 [Example 292, 1-((R)-3-fluoropyrrolidin-1-yl)-2-((R)-2-methyl-3-thioxo-6-(2,3,6-trifluorophenyl)-2,5,6,7-tetrahydro-3H-pyrrolo[1,2-c]imidazol-1-yl)ethan-1-one] | 101.9 % of control | 68.3 % of control
11 | CN(CCO)C(=O)Cc1c2n(c(=S)n1C)C[C@@H](c1c(F)ccc(F)c1F)C2 [Example 293, (R)—N-(2-hydroxyethyl)-N-methyl-2-(2-methyl-3-thioxo-6-(2,3,6-trifluorophenyl)-2,5,6,7-tetrahydro-3H-pyrrolo[1,2-c]imidazol-1-yl)acetamide] | 104.8 % of control | 86.0 % of control
12 | Cn1c(CC(=O)NC2CCCCC2)c2n(c1=S)C[C@@]1(c3cc(Br)ccc3F)C[C@@H]21 [Example 294, 2-((5aS,6aR)-5a-(5-bromo-2-fluorophenyl)-2-methyl-3-thioxo-2,3,5,5a,6,6a-hexahydrocyclopropa[3,4]pyrrolo[1,2-c]imidazol-1-yl)-N-cyclohexylacetamide] | 39.7 % of control | 1.7 % of control

Continued, values first:

Row | Plasma (0.01 μM), activity in % of control | Plasma (0.1 μM), activity in % of control | SMILES
13 | 95.6 % of control | 71.5 % of control | Cn1c(CC(=O)N[C@H]2CCOC2)c2n(c1=S)C[C@@H](c1c(F)c(F)cc(F)c1F)C2 [Example 295, 2-((R)-2-methyl-3-thioxo-6-(2,3,5,6-tetrafluorophenyl)-2,5,6,7-tetrahydro-3H-pyrrolo[1,2-c]imidazol-1-yl)-N—((S)-tetrahydrofuran-3-yl)acetamide]
14 | 89.2 % of control | 74.5 % of control | Cn1c(CC(=O)N2CCC[C@H]2CF)c2n(c1=S)C[C@@H](c1c(F)ccc(F)c1F)C2 [Example 296, 1-((S)-2-(fluoromethyl)pyrrolidin-1-yl)-2-((R)-2-methyl-3-thioxo-6-(2,3,6-trifluorophenyl)-2,5,6,7-tetrahydro-3H-pyrrolo[1,2-c]imidazol-1-yl)ethan-1-one]
15 | 78.7 % of control | 35.4 % of control | Cn1c(CC(=O)NC2CCOCC2)c2n(c1=S)C[C@@H](c1c(F)c(F)cc(F)c1F)C2 [Example 297, (R)-2-(2-methyl-6-(2,3,5,6-tetrafluorophenyl)-3-thioxo-2,5,6,7-tetrahydro-3H-pyrrolo[1,2-c]imidazol-1-yl)-N-(tetrahydro-2H-pyran-4-yl)acetamide]
16 | 83.5 % of control | 28.2 % of control | Cn1c(CC(=O)NCC(F)(F)F)c2n(c1=S)C[C@@]1(c3cc(Br)ccc3F)C[C@@H]21 [Example 298, 2-((5aS,6aR)-5a-(5-bromo-2-fluorophenyl)-2-methyl-3-thioxo-2,3,5,5a,6,6a-hexahydrocyclopropa[3,4]pyrrolo[1,2-c]imidazol-1-yl)-N-(2,2,2-trifluoroethyl)acetamide]
17 | 84.3 % of control | 48.4 % of control | Cn1c(CC(=O)NC2CCOCC2)c2n(c1=S)C[C@@H](c1c(F)ccc(F)c1F)C2 [Example 299, (R)-2-(2-methyl-6-(2,3,6-trifluorophenyl)-3-thioxo-2,5,6,7-tetrahydro-3H-pyrrolo[1,2-c]imidazol-1-yl)-N-(tetrahydro-2H-pyran-4-yl)acetamide]
18 | 57.0 % of control | 10.9 % of control | Cn1c(CC(=O)NCC(F)(F)F)c2n(c1=S)C[C@@]1(c3cc(Cl)ccc3F)C[C@@H]21 [Example 300, 2-((5aS,6aR)-5a-(5-chloro-2-fluorophenyl)-2-methyl-3-thioxo-2,3,5,5a,6,6a-hexahydrocyclopropa[3,4]pyrrolo[1,2-c]imidazol-1-yl)-N-(2,2,2-trifluoroethyl)acetamide]
19 | 49.1 % of control | 6.4 % of control | Cn1c(CC(=O)N[C@@H]2CCCOC2)c2n(c1=S)C[C@@]1(c3cc(Cl)ccc3F)C[C@@H]21 [Example 301, 2-((5aS,6aR)-5a-(5-chloro-2-fluorophenyl)-2-methyl-3-thioxo-2,3,5,5a,6,6a-hexahydrocyclopropa[3,4]pyrrolo[1,2-c]imidazol-1-yl)-N—((R)-tetrahydro-2H-pyran-3-yl)acetamide]
20 | 62.7 % of control | 7.7 % of control | Cn1c(CC(=O)NC2CCCCC2)c2n(c1=S)C[C@@]1(c3cc(Cl)ccc3F)C[C@@H]21 [Example 302, 2-((5aS,6aR)-5a-(5-chloro-2-fluorophenyl)-2-methyl-3-thioxo-2,3,5,5a,6,6a-hexahydrocyclopropa[3,4]pyrrolo[1,2-c]imidazol-1-yl)-N-cyclohexylacetamide]
